Results taken from ChEMBL document CHEMBL1133311, “Synthesis and PKC isozyme surrogate binding of indothiolactam-V, a new thioamide analogue of tumor promoting indolactam-V” (Bioorg Med Chem Lett, 2000).

What was measured:
[1] = target: T1, Protein kinase C alpha type (Homo sapiens, UniProt P17252); experiment: Displacement of [3H]- PDBu from Protein kinase C alpha C1b domain
[2] = target: T2, Protein kinase C epsilon type (Homo sapiens, UniProt Q02156); experiment: Displacement of [3H]- PDBu from Protein kinase C epsilon C1b domain
T2 sequence (Q02156 whole entry): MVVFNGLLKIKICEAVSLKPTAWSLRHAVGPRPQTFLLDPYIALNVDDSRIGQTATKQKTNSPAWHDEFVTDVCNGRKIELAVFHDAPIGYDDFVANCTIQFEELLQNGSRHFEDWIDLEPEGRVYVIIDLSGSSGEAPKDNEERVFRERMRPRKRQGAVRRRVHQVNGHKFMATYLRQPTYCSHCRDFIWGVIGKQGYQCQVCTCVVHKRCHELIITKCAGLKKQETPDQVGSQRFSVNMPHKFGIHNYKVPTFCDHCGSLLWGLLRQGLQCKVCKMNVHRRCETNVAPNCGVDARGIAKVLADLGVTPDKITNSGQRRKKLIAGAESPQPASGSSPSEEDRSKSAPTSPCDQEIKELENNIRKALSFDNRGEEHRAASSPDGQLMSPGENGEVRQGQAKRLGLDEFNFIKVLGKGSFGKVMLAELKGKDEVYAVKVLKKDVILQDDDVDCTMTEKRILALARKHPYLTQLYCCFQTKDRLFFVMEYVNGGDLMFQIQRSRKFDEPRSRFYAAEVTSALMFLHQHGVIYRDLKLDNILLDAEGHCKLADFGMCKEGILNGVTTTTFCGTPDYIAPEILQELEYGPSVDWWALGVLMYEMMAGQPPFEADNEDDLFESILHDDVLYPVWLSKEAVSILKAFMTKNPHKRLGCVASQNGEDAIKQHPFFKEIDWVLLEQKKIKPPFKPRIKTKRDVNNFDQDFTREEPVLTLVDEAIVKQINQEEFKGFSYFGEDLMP

[3] = target: T2, Protein kinase C epsilon type; experiment: Displacement of [3H]- PDBu from Protein kinase C epsilon C1a domain
[4] = target: T3, Protein kinase C gamma type (Homo sapiens, UniProt P05129); experiment: Displacement of [3H]- PDBu from Protein kinase C gamma C1a domain
[5] = target: T1, Protein kinase C alpha type; experiment: Displacement of [3H]- PDBu from Protein kinase C alpha C1a domain
[6] = target: Protein kinase C theta type (Homo sapiens, UniProt Q04759); experiment: Displacement of [3H]- PDBu from Protein kinase C theta C1b domain
[7] = target: T4, Protein kinase C eta type (Homo sapiens, UniProt P24723); experiment: Displacement of [3H]- PDBu from Protein kinase C eta C1a domain
[8] = target: T5, Protein kinase C delta type (Homo sapiens, UniProt Q05655); experiment: Displacement of [3H]- PDBu from Protein kinase C delta C1a domain
[9] = target: T5, Protein kinase C delta type; experiment: Displacement of [3H]- PDBu from Protein kinase C delta C1b domain
[10] = target: T4, Protein kinase C eta type; experiment: Displacement of [3H]- PDBu from Protein kinase C eta C1b domain
[11] = target: T6, Protein kinase C beta type (Homo sapiens, UniProt P05771); experiment: Displacement of [3H]- PDBu from Protein kinase C beta C1b domain
[12] = target: T6, Protein kinase C beta type; experiment: Displacement of [3H]- PDBu from Protein kinase C beta C1a domain
[13] = target: T3, Protein kinase C gamma type; experiment: Displacement of [3H]- PDBu from Protein kinase C gamma C1b domain

T4 sequence (P24723 whole entry, the tested form may be a part): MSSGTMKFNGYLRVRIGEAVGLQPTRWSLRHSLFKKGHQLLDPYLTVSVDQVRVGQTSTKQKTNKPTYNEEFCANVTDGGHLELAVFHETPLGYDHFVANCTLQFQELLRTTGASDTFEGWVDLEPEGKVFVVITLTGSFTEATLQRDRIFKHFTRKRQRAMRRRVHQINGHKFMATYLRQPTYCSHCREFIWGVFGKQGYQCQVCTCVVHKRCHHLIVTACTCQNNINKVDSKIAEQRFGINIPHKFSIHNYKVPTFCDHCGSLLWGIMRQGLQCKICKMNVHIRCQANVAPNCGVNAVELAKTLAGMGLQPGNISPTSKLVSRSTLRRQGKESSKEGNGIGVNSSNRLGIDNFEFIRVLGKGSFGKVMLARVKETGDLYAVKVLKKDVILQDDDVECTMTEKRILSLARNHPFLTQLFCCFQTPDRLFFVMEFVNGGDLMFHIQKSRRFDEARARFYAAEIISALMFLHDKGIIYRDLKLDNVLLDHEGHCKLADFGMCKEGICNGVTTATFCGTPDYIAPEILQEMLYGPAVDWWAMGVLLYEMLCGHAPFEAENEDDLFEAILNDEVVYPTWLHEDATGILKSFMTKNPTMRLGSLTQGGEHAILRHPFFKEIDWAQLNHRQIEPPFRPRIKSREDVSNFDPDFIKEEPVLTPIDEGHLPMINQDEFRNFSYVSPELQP
T6 sequence (P05771 whole entry, the tested form may be a part): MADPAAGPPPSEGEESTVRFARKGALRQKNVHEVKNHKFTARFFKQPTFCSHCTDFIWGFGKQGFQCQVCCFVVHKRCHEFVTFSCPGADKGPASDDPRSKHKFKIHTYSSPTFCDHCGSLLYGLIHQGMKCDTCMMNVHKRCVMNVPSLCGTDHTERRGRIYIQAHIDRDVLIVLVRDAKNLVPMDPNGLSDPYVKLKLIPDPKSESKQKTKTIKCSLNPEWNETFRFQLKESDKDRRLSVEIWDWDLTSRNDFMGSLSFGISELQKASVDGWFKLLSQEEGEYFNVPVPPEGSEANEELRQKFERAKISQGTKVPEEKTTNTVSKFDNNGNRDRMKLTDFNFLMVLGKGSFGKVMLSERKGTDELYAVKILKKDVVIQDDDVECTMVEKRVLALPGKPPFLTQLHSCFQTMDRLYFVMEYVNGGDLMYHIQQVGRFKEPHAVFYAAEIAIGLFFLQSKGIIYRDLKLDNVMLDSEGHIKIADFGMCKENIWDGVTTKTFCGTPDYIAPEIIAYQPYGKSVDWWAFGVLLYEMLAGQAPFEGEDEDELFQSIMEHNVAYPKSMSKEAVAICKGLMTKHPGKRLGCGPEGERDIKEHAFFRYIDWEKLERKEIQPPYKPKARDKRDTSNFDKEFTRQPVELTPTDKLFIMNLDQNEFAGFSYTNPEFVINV
T5 sequence (Q05655 whole entry, the tested form may be a part): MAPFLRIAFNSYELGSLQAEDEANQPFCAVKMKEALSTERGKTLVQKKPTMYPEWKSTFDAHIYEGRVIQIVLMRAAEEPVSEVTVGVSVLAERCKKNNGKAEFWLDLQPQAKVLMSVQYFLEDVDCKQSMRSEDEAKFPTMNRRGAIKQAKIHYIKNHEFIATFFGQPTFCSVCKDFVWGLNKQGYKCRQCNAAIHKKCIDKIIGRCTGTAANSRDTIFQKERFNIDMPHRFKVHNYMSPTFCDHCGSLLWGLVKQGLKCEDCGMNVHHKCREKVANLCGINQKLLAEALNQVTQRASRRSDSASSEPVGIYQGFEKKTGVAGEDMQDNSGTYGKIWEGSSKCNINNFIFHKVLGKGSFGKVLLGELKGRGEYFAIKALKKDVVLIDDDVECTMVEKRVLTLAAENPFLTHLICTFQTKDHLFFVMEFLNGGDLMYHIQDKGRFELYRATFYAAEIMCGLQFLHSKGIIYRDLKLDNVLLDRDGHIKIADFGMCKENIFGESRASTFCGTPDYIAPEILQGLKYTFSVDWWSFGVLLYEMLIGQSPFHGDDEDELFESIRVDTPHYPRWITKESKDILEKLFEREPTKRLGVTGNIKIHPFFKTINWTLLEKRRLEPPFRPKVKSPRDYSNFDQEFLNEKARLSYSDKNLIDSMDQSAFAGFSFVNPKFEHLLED
Chain of Protein kinase C theta type (Q04759 whole entry, the tested form may be a part): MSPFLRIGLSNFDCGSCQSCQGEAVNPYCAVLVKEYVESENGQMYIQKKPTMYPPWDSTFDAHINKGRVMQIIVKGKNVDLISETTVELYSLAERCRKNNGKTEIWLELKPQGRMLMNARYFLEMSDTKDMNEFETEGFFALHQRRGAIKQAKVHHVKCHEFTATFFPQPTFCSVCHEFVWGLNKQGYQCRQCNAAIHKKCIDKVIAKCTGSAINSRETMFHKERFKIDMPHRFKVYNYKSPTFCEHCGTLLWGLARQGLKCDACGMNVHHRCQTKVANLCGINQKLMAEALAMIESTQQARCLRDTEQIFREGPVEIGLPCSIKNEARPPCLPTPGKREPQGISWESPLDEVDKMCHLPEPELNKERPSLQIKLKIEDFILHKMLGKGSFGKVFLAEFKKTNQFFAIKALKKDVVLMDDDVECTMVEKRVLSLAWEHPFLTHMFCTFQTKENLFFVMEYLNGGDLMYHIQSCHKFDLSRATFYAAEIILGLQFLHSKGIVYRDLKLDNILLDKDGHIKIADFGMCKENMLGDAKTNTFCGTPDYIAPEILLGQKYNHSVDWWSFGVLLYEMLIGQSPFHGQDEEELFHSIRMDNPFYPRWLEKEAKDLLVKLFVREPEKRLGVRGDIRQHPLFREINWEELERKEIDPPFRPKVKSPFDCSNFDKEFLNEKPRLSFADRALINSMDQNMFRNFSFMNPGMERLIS

| SMILES | Ki [1] [µM] | Ki [2] [nM] | Ki [3] [µM] | Ki [4] [nM] | Ki [5] [nM] | Ki [6] [nM] | Ki [7] [nM] | Ki [8] [nM] | Ki [9] [nM] | Ki [10] [nM] | Ki [11] [nM] | Ki [12] [nM] | Ki [13] [nM] |
| --- | --- | --- | --- | --- | --- | --- | --- | --- | --- | --- | --- | --- | --- |
| CC(C)[C@H]1C(=S)N[C@H](CO)Cc2c[nH]c3cccc(c23)N1C | 2.14 | 41.5 | 3.86 | 296 | 261 | 61.6 | 2160 | 2950 | 67.5 | 20.6 | 226 | 180 | 288 |
| CC(C)[C@H]1C(=O)N[C@H](CO)Cc2c[nH]c3cccc(c23)N1C [INDOLACTUM] | 4 | 7.7 | 4.11 | 138 | 127 | 8.7 | 3770 | 1900 | 8.3 | 5.5 | 136 | 173 | 213 |
